In patent US10125100B2, “Kinase inhibitors” (Respivert Limited, priority 2014, dated 2018):

Key:
Crohn's patients = conditions: transient, returning to baseline by week 8; cited from earlier work
mitosis in PBMCs = assay: (g) Cell mitosis assay; type: cell-based; conditions: Homo sapiens, PBMC, 5 μg/mL
In short: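 Healthy-donor PBMCs stimulated with 2% PHA for 48 hr, then exposed to test compounds at varying concentrations for 20 hr; demecolcine (0.1 μg/mL) added 2 hr before collection for metaphase arrest. Cells fixed/permeabilized, stained with anti-phospho-histone 3 and propidium iodide; mitotic cells counted by flow cytometry gating on lymphocytes.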

c-Src = c-Src (Homo sapiens (Human), UniProt P12931); assay: c-Src enzyme inhibition, Z-LYTE FRET; type: biochemical
Chain of c-Src (P12931 whole entry, looked up): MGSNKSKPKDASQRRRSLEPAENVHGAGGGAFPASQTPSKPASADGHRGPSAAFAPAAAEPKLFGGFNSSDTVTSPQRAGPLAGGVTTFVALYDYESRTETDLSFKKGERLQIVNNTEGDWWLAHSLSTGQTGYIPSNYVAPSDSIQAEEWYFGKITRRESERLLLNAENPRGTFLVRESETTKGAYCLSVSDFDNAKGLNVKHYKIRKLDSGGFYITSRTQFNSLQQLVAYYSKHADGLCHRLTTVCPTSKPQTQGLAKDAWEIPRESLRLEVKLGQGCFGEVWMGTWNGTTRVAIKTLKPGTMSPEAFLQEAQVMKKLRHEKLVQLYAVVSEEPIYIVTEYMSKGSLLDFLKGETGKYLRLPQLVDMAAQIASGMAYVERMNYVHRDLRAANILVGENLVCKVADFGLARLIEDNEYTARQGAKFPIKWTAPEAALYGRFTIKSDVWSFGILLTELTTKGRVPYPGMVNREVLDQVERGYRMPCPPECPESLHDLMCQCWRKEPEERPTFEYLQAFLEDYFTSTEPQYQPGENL
In short: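 Z-LYTE FRET peptide phosphorylation read as donor coumarin over acceptor fluorescein ratio after 1 hr protease development. Compounds (1–0.001 μg/mL) preincubated 2 hr at RT with enzyme; ATP solutions 60 μM for Syk, 800 μM for c-Src; kinase reaction 1 hr.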

GSK 3α = GSK 3α (Homo sapiens (Human), UniProt P49840); assay: GSK 3α enzyme inhibition (Method 2), Z-LYTE FRET; type: biochemical; conditions: read-out: IC50 Values for Enzyme Inhibition GSK3α
Chain of GSK 3α (P49840 whole entry): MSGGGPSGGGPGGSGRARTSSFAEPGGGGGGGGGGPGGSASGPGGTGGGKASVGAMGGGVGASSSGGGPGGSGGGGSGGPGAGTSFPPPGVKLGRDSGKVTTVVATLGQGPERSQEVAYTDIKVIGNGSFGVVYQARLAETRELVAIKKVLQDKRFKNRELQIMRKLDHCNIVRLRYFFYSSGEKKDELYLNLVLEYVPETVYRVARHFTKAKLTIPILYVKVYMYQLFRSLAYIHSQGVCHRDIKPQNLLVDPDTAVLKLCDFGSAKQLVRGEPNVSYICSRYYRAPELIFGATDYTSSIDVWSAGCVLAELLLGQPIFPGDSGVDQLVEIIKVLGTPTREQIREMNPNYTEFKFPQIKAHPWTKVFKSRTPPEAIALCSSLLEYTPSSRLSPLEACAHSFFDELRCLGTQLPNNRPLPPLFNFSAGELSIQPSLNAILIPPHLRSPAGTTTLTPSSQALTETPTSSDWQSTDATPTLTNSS
Method: The enzyme inhibitory activities of compounds disclosed herein are determined by FRET using synthetic peptides labelled with both donor and acceptor fluorophores (Z-LYTE, Invitrogen Ltd., Paisley, UK).
The following two assay variants can be used for determination of GSK 3α inhibition.
The inhibitory activities of compounds of the invention against the GSK 3α enzyme isoform (Invitrogen), are evaluated by determining the level of activation/phosphorylation of the target peptide. The GSK3-α protein (500 ng/mL, 2.5 μL) is mixed with the test compound (2.5 μL at either 4 μg/mL, 0.4 μg/mL, 0.04 μg/mL, or 0.004 μg/mL) for 2 hr at RT. The FRET peptide (8 μM, 2.5 μL), which is a phosphorylation target for GSK3α, and ATP (40 μM, 2.5 μL) are then added to the enzyme/compound mixture and the resulting mixture incubated for 1 hr. Development reagent (protease, 5 μL) is added for 1 hr prior to detection in a fluorescence microplate reader (Varioskan® Flash, ThermoFisher Scientific).
In all cases, the site-specific protease cleaves non-phosphorylated peptide only and eliminates the FRET signal. Phosphorylation levels of each reaction are calculated using the ratio of coumarin emission (donor) over fluorescein emission (acceptor), for which high ratios indicate high phosphorylation and low ratios indicate low phosphorylation levels.
This method follows the same steps as Method 1 above, but utilises a shorter period of mixing of the test compound (105 minutes instead of 2 hours) with the GSK3-α protein. In addition, the concentrations of test compound employed are either 10 μg/mL, 1 μg/mL, 0.1 μg/mL, or 0.01 μg/mL

Syk = Syk (Homo sapiens (Human), UniProt P43405); assay: Syk enzyme inhibition, Z-LYTE FRET; type: biochemical
In short: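 Syk or c-Src enzyme (3000 or 2000 ng/mL solutions) was preincubated 2 h at RT with compound solutions at 1, 0.1, 0.01 or 0.001 µg/mL. Z-LYTE FRET peptide (8 µM solution) and ATP (800 µM solution for c-Src, 60 µM for Syk) were then added for 1 h, followed by protease development for 1 h. Phosphorylation was read as the coumarin/fluorescein emission ratio.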

[1] = tested on: patients with severe Crohn's disease; conditions: over 8 weeks; cited from earlier work
[2] = tested on: rheumatoid arthritis patients; conditions: cited from earlier work

IC50 (c-Src)	IC50 (GSK 3α)	IC50 (Syk)	Structure (SMILES)	inhibition at 5 µg/mL (mitosis in PBMCs)	other results
			Cc1ccc(-n2nc(C(C)(C)C)cc2NC(=O)Nc2ccc(OCCN3CCOCC3)c3ccccc23)cc1 [BIRB796]		clinical benefit, C-reactive protein levels (Crohn's patients): improvement in C-reactive protein levels
17 nM	2740 nM	105 nM	COc1cc(Nc2cc(Oc3ccc(NC(=O)Nc4cc(C(C)(C)C)cc(NS(C)(=O)=O)c4OC)c4ccccc34)ccn2)ccc1C(=O)NCCCN1CC[S+]([O-])CC1 [17(ag), 4-[[4-[[4-[[5-tert-butyl-3-(methanesulfonamido)-2-methoxy-phenyl]carbamoylamino]-1-naphthyl]oxy]-pyridyl]amino]-2-methoxy-N-[3-(1-oxo-1,4-thiazan-4-yl)propyl]benzamide]	51.8%	
			C/C(=N\N=C(N)N)c1cc(NC(=O)CCCCCCCCC(=O)Nc2cc(/C(C)=N/N=C(N)N)cc(/C(C)=N/N=C(N)N)c2)cc(/C(C)=N/N=C(N)N)c1.Cl.Cl.Cl.Cl [CNI-1493]		clinical score [1]: significant improvement in clinical score
			COc1cc(Nc2ncc(F)c(Nc3ccc4c(n3)N(COP(=O)(O)O)C(=O)C(C)(C)O4)n2)cc(OC)c1OC [Fostamatinib]		clinical outcome [2]: improved clinical outcome; serum levels of IL-6 and MMP-3 [2]: reduced serum levels of IL-6 and MMP-3
20 nM	9190 nM	57 nM	COc1cc(Nc2cc(Oc3ccc(NC(=O)Nc4cc(C(C)(C)C)cc(NS(C)(=O)=O)c4OC)c4ccccc34)ccn2)ccc1C(=O)NCCCN1CCS(=O)(=O)CC1 [17(ah), 4-[[4-[[4-[[5-tert-butyl-3-(methanesulfonamido)-2-methoxy-phenyl]carbamoylamino]-1-naphthyl]oxy]-2-pyridyl]amino]-N-[3-(1,1-dioxo-1,4-thiazinan-4-yl)propyl]-2-methoxy-benzamide]	32.5%	
16 nM	4000 nM		COc1cc(Nc2cc(Oc3ccc(NC(=O)Nc4cc(C(C)(C)C)cc(NS(C)(=O)=O)c4OC)c4ccccc34)ccn2)ccc1C(=O)NCCN1CCN(C)CC1 [17(a), 4-[[4-[[4-[[5-tert-butyl-3-(methanesulfonamido)-2-methoxy-phenyl]carbamoylamino]-1-naphthyl]oxy]-2-pyridyl]amino]-2-methoxy-N-[2-(4-methylpiperazin-1-yl)ethyl]benzamide]	75.6%	
